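Exposure lasted 48 hours, with cells grown in 96-well plates and compounds tested at five concentrations. At the GI50, growth is halved. Definition used: TGI = concentration required for complete inhibition of growth.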
Key:
Experiment in all cases: NCI anticancer screen, dose series, 48 h
[1] = system: COLO 205 colon
[2] = system: DLD-1 colon
[3] = system: DMS 114 small cell lung
[4] = system: HCT-116 colon
[5] = system: MALME-3M melanoma
[6] = system: MDA-MB-231 breast
[7] = system: MDA-MB-435
[8] = system: NCI-H23 lung
[9] = system: OVCAR-3 ovarian
[10] = system: OVCAR-5 ovarian

SMILES	TGI [1] [µM]	TGI [2] [µM]	TGI [3] [µM]	TGI [4] [µM]	TGI [5] [µM]	TGI [6] [µM]	TGI [7] [µM]	TGI [8] [µM]	TGI [9] [µM]	TGI [10] [µM]	GI50 [1] [µM]	GI50 [2] [µM]	GI50 [3] [µM]	GI50 [4] [µM]	GI50 [5] [µM]	GI50 [8] [µM]	GI50 [10] [µM]
C=C1C(=O)OC2/C=C(\C)C3OC3/C=C(/C(=O)OC)C(OC(C)=O)C(OC(=O)C(C)(O)C(C)OC(C)=O)C12 (stereo not given)	8.97	7.52	4.01	6.14	7.88	22.6	4.84	11.2	13.9	10.7	–	–	–	–	–	–	–
N#CC1=C(c2ccccc2)C(O)(c2ccccc2)NC1=O (stereo not given)	> 100	> 100	> 100	> 100	74	–	–	> 100	> 100	90.1	–	–	–	–	–	–	–
COc1ccc(C(=O)O)c(Cc2ccc3ccccc3c2)c1	> 100	> 100	> 100	> 100	> 100	–	–	> 100	> 100	> 100	–	–	–	–	–	–	–
ClC[Si]12OCCN(CCO1)CCO2	> 100	> 100	> 100	> 100	> 100	–	–	> 100	> 100	> 100	–	–	–	–	–	–	–
CC(C)CC(=O)NS(=O)(=O)c1ccccc1	> 100	> 100	> 100	> 100	> 100	–	–	> 100	> 100	> 100	–	–	–	–	–	–	–
CC(=O)OCC1OC(Sc2ccccn2)C=CC1OC(C)=O (stereo not given)	> 100	> 100	> 100	> 100	> 100	–	–	> 100	> 100	> 100	–	–	–	–	–	–	–
COc1cc(-c2cc(CCC(=O)Nc3ccccc3[N+](=O)[O-])n(-c3ccc([N+](=O)[O-])cc3[N+](=O)[O-])n2)ccc1O	> 100	> 100	> 100	> 100	> 100	–	–	> 100	> 10	> 100	> 100	> 100	> 100	> 100	> 100	> 100	> 100
CC(O[Si](C)(C)C)C1C=CC(C)n2c(=O)n(-c3ccccc3)c(=O)n21 (stereo not given)	> 100	> 100	> 100	> 100	> 100	–	–	> 100	> 100	> 100	–	–	–	–	–	–	–
CC1(C)OC(=O)C(=C2CC(c3ccccc3)c3ccccc32)C(=O)O1 (stereo not given)	> 100	> 100	> 100	> 100	> 100	–	–	> 100	> 100	> 100	–	–	–	–	–	–	–
CCC/C(=N\NC(=O)c1cc2ccccc2cc1O)C(CC)C(=O)CCC(=O)N(Cc1ccccc1)Cc1ccccc1 (stereo not given)	69.5	> 100	59.7	> 100	> 100	–	–	> 100	> 100	> 100	–	–	–	–	–	–	–
COC(=O)NN1C(C)=C(C(=O)OC)C2(CCOC2=O)C1(C)O (stereo not given)	> 100	> 100	> 100	> 100	> 100	–	–	> 100	> 100	> 100	–	–	–	–	–	–	–
c1ccc(C2N3CCCCC3[C@@H]3c4[nH]c5ccccc5c4CCN23)cc1 (stereo not given in full)	48.2	> 100	> 100	> 100	> 100	–	–	> 100	> 100	> 100	–	–	–	–	–	–	–

— PubChem BioAssay (NCI)
